# According to article PMC4583420, “Identification and Validation of a Potent Dual Inhibitor of the P. falciparum M1 and M17 Aminopeptidases Using Virtual Screening” (PLoS ONE, 2015):
# System: PfA-M1 and PfA-M17 (total aminopeptidase activity)
# Assay: Total aminopeptidase activity in the presence of 1 mM compound (fluorigenic substrate L-leucyl-7-amido-4-methylcoumarin)
# Type: biochemical, Plasmodium falciparum
# Conditions: no compound control = 100% activity
# Text: (§1) The expression and purification of PfA-M1 and PfA-M17 in Escherichia coli employed a two-step purification process of Ni-NTA-agarose column, followed by size exclusion chromatography on a Superdex 200 16/60 using an AKTAxpress high throughput chromatography system (http://proteinexpress.med.monash.edu.au/index.htm), as previously described. Compounds were purchased from Ambinter (France). Purity (90% or higher) of these compounds was confirmed by vendors. Aminopeptidase activity and K i values for both enzymes were determined as already described.
# The top 12 hits identified in the virtual screen were evaluated for their ability to inhibit both PfA-M1 and PfA-M17 in vitro. We initially tested the total aminopeptidase activity (as reported by the fluorigenic substrate L-leucyl-7-amido-4-methylcoumarin) in the presence of 1 mM compound (Fig 3). In this screen, the “no compound” control was considered 100% activity and bestatin was included as an indicator/control for inhibition. From the results obtained, only compounds 4 (ZINC ID: 25108749) and 12 (ZINC ID: 4090432) were able to inhibit the activity of the enzymes to > 50%. […] The two inhibitory compounds were further analyzed to identify their effects on the individual aminopeptidases. To do this, we performed dose-response assays for each inhibitor with each enzyme, and then determined a K i via Dixon plots (Fig 4). […]
row,Structure (SMILES),inhibition of total aminopeptidase activity [%]
1,"CC(CP(=O)(O)C(N)c1ccccc1)C(=O)O (stereo not shown) [Compound 4, 3-{[amino(phenyl)methyl](hydroxy)phosphoryl}-methyl propanoic acid]",95
2,CC(C)CC(CP(=O)(O)C(N)c1ccccc1)C(=O)O (stereo not shown) [Compound 12],98

# Molecular target: T1, PfA-M17 (Plasmodium falciparum, UniProt Q8IL11)
# T1 construct: made in house; host or cells: Escherichia coli
# T1 sequence (Q8IL11 84-605 limits assumed): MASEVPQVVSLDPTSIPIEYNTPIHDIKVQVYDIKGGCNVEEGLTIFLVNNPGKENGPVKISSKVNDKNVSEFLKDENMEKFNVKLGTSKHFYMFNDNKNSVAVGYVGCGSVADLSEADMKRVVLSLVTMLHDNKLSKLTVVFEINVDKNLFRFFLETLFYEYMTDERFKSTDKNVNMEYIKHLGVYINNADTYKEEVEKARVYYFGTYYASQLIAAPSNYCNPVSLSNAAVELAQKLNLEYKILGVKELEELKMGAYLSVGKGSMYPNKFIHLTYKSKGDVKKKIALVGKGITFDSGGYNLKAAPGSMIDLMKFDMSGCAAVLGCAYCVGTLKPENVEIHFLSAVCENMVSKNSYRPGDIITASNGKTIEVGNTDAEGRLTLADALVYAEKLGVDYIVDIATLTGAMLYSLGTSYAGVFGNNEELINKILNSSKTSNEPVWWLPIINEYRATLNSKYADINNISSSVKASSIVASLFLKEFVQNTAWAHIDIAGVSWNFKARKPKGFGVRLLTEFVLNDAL
# Assay: Dose-response aminopeptidase assay, Ki via Dixon plots, PfA-M17
# Type: biochemical
# Conditions: Dixon plot; substrate 5 and 10 μM
# Text: as §1
# (§2) The top 12 hits identified in the virtual screen were evaluated for their ability to inhibit both PfA-M1 and PfA-M17 in vitro. We initially tested the total aminopeptidase activity (as reported by the fluorigenic substrate L-leucyl-7-amido-4-methylcoumarin) in the presence of 1 mM compound (Fig 3). In this screen, the “no compound” control was considered 100% activity and bestatin was included as an indicator/control for inhibition. From the results obtained, only compounds 4 (ZINC ID: 25108749) and 12 (ZINC ID: 4090432) were able to inhibit the activity of the enzymes to > 50%. […] The two inhibitory compounds were further analyzed to identify their effects on the individual aminopeptidases. To do this, we performed dose-response assays for each inhibitor with each enzyme, and then determined a K i via Dixon plots (Fig 4). […] Compound 4 was a weaker inhibitor of both enzymes with K i’s in the micromolar range (K i = 30.0 μM for PfA-M1 and 0.7 μM for PfA-M17; Fig 4).
# (§3) Fig 4 Dixon plots of 1/V (y axis) versus inhibitor concentration (x axis) for PfA-M1 (top panel) and PfA-M17 (bottom panel). For PfA-M1, substrate concentrations were 20 μM (blue) and 40 μM (red); inhibitor concentration in μM. For PfA-M17, substrate concentrations were 5 μM (magenta) and 10 μM (green); inhibitor concentration in μM or nM as indicated. The point of intersection (-K i) is indicated as a dotted line. (A) PfA-M1 and compound 4. (B) PfA-M1 and compound 12. (C) PfA-M17 and compound 4. (D) PfA-M17 and compound 12
Structure (SMILES),Ki PfA-M17,Ki [nM]
O=C(O)C(Cc1ccco1)P(=O)(O)CN1CCCCC1 (stereo not shown) [Compound 6],n.i.,–
"CC(CP(=O)(O)C(N)c1ccccc1)C(=O)O (stereo not shown) [Compound 4, 3-{[amino(phenyl)methyl](hydroxy)phosphoryl}-methyl propanoic acid]",–,700
NCP(=O)(O)CC(CCCC(=O)O)C(=O)O (stereo not shown) [Compound 3],n.i.,–
CP(=O)(O)CCCCC(N)C(=O)O (stereo not shown) [Compound 1],n.i.,–
O=C(O)C(CC1CCCO1)P(=O)(O)CN1CCCC1=O (stereo not shown) [Compound 9],n.i.,–
CCCN(CCC)CP(=O)(O)CCC(=O)O [Compound 7],n.i.,–
NC(=O)NC(CC(=O)O)C(=O)O (stereo not shown) [Compound 10],n.i.,–
CC(C)CC(CP(=O)(O)C(N)c1ccccc1)C(=O)O (stereo not shown) [Compound 12],–,17
CC(CC(N)C(=O)O)C(=O)O (stereo not shown) [Compound 11],n.i.,–
O=C(O)CCP(=O)(O)CN1CCCCC1 [Compound 8],n.i.,–

# Molecular target: T2, PfA-M1 (Plasmodium falciparum, UniProt O96935)
# T2 construct: made in house; host or cells: Escherichia coli
# T2 sequence (O96935 1-1085): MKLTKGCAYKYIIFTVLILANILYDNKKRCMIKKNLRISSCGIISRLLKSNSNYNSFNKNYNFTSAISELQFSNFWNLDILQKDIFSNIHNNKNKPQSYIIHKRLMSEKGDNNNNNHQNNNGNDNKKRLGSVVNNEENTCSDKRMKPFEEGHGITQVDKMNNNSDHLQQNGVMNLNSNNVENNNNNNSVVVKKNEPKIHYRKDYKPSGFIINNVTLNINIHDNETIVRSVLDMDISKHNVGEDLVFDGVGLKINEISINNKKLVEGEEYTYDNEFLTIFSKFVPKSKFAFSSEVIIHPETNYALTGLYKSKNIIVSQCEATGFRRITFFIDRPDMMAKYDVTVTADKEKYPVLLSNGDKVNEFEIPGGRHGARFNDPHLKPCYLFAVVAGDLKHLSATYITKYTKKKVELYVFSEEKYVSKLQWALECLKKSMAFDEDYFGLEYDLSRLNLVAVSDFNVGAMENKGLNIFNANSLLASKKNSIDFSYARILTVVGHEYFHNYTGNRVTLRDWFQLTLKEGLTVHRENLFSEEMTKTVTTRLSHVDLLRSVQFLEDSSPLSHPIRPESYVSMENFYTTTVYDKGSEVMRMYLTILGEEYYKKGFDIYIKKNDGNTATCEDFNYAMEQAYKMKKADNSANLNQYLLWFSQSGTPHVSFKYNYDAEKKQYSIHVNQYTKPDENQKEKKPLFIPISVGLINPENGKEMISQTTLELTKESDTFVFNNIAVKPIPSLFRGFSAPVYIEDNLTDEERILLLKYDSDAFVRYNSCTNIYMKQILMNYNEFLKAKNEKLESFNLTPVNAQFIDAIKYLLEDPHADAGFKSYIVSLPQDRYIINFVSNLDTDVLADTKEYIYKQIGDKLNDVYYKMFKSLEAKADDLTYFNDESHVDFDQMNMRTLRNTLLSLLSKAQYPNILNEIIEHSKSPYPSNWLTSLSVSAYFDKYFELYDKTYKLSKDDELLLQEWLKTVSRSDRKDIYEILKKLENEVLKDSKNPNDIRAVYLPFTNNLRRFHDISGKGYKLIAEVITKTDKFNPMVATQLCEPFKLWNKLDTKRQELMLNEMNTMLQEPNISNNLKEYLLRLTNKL
# Assay: Dose-response aminopeptidase assay, Ki via Dixon plots, PfA-M1
# Type: biochemical
# Conditions: Dixon plot; substrate 20 and 40 μM
# Text: as §1, §2, §3
Structure (SMILES),Ki PfA-M1,Ki [nM]
O=C(O)C(Cc1ccco1)P(=O)(O)CN1CCCCC1 (stereo not shown) [Compound 6],n.i.,–
"CC(CP(=O)(O)C(N)c1ccccc1)C(=O)O (stereo not shown) [Compound 4, 3-{[amino(phenyl)methyl](hydroxy)phosphoryl}-methyl propanoic acid]",–,30000
NCP(=O)(O)CC(CCCC(=O)O)C(=O)O (stereo not shown) [Compound 3],n.i.,–
CP(=O)(O)CCCCC(N)C(=O)O (stereo not shown) [Compound 1],n.i.,–
O=C(O)C(CC1CCCO1)P(=O)(O)CN1CCCC1=O (stereo not shown) [Compound 9],n.i.,–
CCCN(CCC)CP(=O)(O)CCC(=O)O [Compound 7],n.i.,–
NC(=O)NC(CC(=O)O)C(=O)O (stereo not shown) [Compound 10],n.i.,–
CC(C)CC(CP(=O)(O)C(N)c1ccccc1)C(=O)O (stereo not shown) [Compound 12],–,2300
CC(CC(N)C(=O)O)C(=O)O (stereo not shown) [Compound 11],n.i.,–
O=C(O)CCP(=O)(O)CN1CCCCC1 [Compound 8],n.i.,–
